{"source": "paper PMC3351436", "about": "“Direct and Allosteric Inhibition of the FGF2/HSPGs/FGFR1 Ternary Complex Formation by an Antiangiogenic, Thrombospondin-1-Mimic Small Molecule” (PLoS ONE, 2012)", "key": {"FGF2/heparin interaction": {"target": "T1, FGF2/heparin interaction (Homo sapiens, UniProt P09038)", "T1 construct": "made in house", "T1 sequence (P09038 134-288)": "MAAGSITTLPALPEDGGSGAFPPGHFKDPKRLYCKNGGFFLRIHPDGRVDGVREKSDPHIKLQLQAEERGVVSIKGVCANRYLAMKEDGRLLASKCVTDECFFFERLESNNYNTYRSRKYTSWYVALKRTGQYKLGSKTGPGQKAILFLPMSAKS", "assay": "SPR competition: FGF2 binding to surface-immobilized heparin", "details": "FGF2 150 nM injected over immobilized heparin, read-out: IC50, prevention of FGF2/heparin interaction", "description": "SPR measurements were performed on a BIAcore X instrument (GE-Healthcare, WI). Heparin was immobilized onto the SPR chip as described [30], allowing the immobilization of 80 resonance units (RU) (6.0 fmol/mm^2).\nSurface plasmon resonance (SPR) analysis. SPR measurements were performed on a BIAcore X instrument (GE-Healthcare, WI). Heparin was immobilized onto the SPR chip as already described [27]. Briefly, a CMD50L sensorchip (Xantec Bioanalytics, Dusseldorf, Germany) activated with 50 µl of a mixture containing 0.2 M EDC and 0.5 M NHS was coated with streptavidin. Heparin was biotinylated at its reducing end and immobilized onto the streptavidin-coated sensorchip, allowing the immobilization of 80 resonance units (RU) (6.0 fmol/mm^2 of heparin). A streptavidin-coated sensorchip was used as reference and for blank subtraction. […] After every run, the sensorchip was regenerated by injection of HBS containing 2.0 M NaCl."}, "[1]": {"target": "T2, HSPGs low affinity receptors on BAEC (Homo sapiens, UniProt P09038)", "T2 construct": "endogenous in cells; host or cells: BAEC", "T2 sequence (P09038 134-288)": "as above", "assay": "Binding of Eu-FGF2 to endothelial cells (BAEC), low affinity receptors", "format": "cell-based, bovine", "details": "Eu-FGF2 10 ng/ml", "experimental": "(§1) It was possible to discriminate between FGF2 bound to HSPGs low affinity receptors and FGF2 bound to the high affinity FGFR1, following a previously reported procedure.\n(§2) Binding to low and high affinity receptors was analyzed according to [31].\n(§3) Binding of FGF2 to cells. Europium-labeled FGF2 (Eu-FGF2) was prepared as previously described. Endothelial cells (BAEC), naturally expressing both HSPGs and FGFR1, CHO-K1 and FGFR1-expressing A745 CHO cells were used. Subconfluent cell cultures in 96-well plates were washed and incubated for 30 min at 277K in serum-free DMEM with 0.15% gelatin and 25mM HEPES (DMEM-gelatin). […] The plate was incubated for 2 h at 277K. Wells were washed with cold DMEM-gelatin to remove unbound FGF2, and the amount of total bound FGF2 was detected by adding DELFIA^? Enhancement Solution (100 µl, PerkinElmer), and measuring time resolved fluorescence using a Victor^3 multilabel plate reader (PerkinElmer), as described."}, "endothelial cells [2]": {"test_system": "endothelial cells", "design": "method as in PMID 20056600", "details": "cited from earlier work"}, "endothelial cells [3]": {"test_system": "endothelial cells", "design": "method as in PMID 20056600", "details": "cited from earlier work", "remark": "listed apart in the source"}, "FGF2/FGFR1/HSPGs complex": {"target": "T3, FGF2/FGFR1/HSPGs complex (Homo sapiens, UniProt P09038)", "T3 construct": "expressed in transfected cells; host or cells: A745 CHO flg-1A cells on fixed CHO-K1 monolayer", "T3 sequence (P09038 134-288, one chain of several)": "as the sequence (P09038 134-288) above", "assay": "FGF2-mediated cell-cell adhesion assay (A745 CHO flg-1A cells on CHO-K1 monolayer)", "format": "cell-based", "details": "FGF2 1.66 nM, 2 h incubation, serum-free medium; read-out: ID50, inhibition of FGF2-mediated cell-cell adhesion", "experimental": "(§4) Each point is the mean ± SEM of 3 separate experiments. […] C) Binding of Eu-FGF2 to endothelial cells (BAEC). […] After 2 h of incubation at 298K, the cells bound to the monolayer were counted under an inverted microscope. Each point is the mean ± SEM of 3 separate experiments performed in triplicate. In B and C, black and white arrows indicate the inhibitions obtained with heparin (0.1 µg/ml) and unlabeled FGF2 (1.5 µg/ml) used as reference competitor of HSPGs and FGFR1 binding, respectively\nTo exert its pro-angiogenic activity, FGF2 needs to set up a productive, ternary complex with HSPGs and FGFR1 [32].\nData are mean bound cells in three random microscopic fields.\nFGF2-mediated cell-cell adhesion assay: This assay was performed as described previously, with minor modifications. Briefly, monolayers of wild-type CHO-K1 cells were washed with PBS and fixed with 3% glutaraldehyde in PBS for 2 h at 277K followed by washing with 0.1 M glycine, and PBS. […] After 2 h of incubation at 310K, unattached cells were removed by PBS washing and A745 CHO flg-1A cells bound to the CHO-K1 monolayer were counted under an inverted microscope at ×125 magnification. Data are expressed as the mean of the cell counts of three microscopic fields chosen at random. All experiments were performed in triplicate and repeated twice."}, "[4]": {"target": "T4, FGFR1 on A745 CHO flg-1A cells (Homo sapiens, UniProt P09038)", "T4 construct": "expressed in transfected cells; host or cells: A745 CHO (HSPG-deficient), clone flg-1A", "T4 sequence (P09038 134-288)": "as above", "assay": "Binding of Eu-FGF2 to FGFR1-transfected A745 CHO flg-1A cells (HSPG-deficient)", "format": "cell-based, murine", "experimental": "as §1, §2\nCell cultures. Wild-type CHO-K1 cells and the derived HSPG-deficient A745 CHO cell mutants, kindly provided by J. D. Esko (La Jolla, CA), were grown in Ham's F-12 medium supplemented with 10% fetal calf serum (FCS). […] Bovine aortic endothelial cells (BAEC) [30]were cultured in DMEM supplemented with 10% FCS.\nas §3"}, "FGF2/FGFR1 interaction": {"target": "T5, FGF2/FGFR1 interaction (Homo sapiens, UniProt P09038)", "T5 construct": "purchased ReliaTech", "T5 sequence (P09038 134-288)": "as above", "assay": "SPR competition: FGF2 binding to substrate-immobilized FGFR1", "details": "FGF2 150 nM injected over immobilized FGFR1, read-out: ID50, prevention of FGF2/FGFR1 interaction", "experimental": "as §4\nSPR measurements were performed on a BIAcore X instrument (GE-Healthcare, WI). Heparin was immobilized onto the SPR chip as described, allowing the immobilization of 80 resonance units (RU) (6.0 fmol/mm^2). Immobilization of FGFR (13,800 RU, 42.0 fmol/mm^2), is described in the Supporting Information S1. Sensorchips coated with streptavidin or FGF-unrelated noggin protein were used for blank subtraction (respectively for heparin and FGFR-1).\nSurface plasmon resonance (SPR) analysis. SPR measurements were performed on a BIAcore X instrument (GE-Healthcare, WI). Heparin was immobilized onto the SPR chip as already described. Briefly, a CMD50L sensorchip (Xantec Bioanalytics, Dusseldorf, Germany) activated with 50 µl of a mixture containing 0.2 M EDC and 0.5 M NHS was coated with streptavidin. […]"}, "HSPGs on CHO-K1 cells": {"target": "T6, HSPGs on CHO-K1 cells (Homo sapiens, UniProt P09038)", "T6 construct": "endogenous in cells; host or cells: CHO-K1", "T6 sequence (P09038 134-288)": "as above", "assay": "Binding of Eu-FGF2 to wild-type CHO-K1 cells (expressing HSPGs but not FGFR1)", "format": "cell-based", "experimental": "as §1, §2, §3"}, "[5]": {"target": "T7, high affinity FGFR1 on BAEC (Homo sapiens, UniProt P09038)", "T7 construct": "endogenous in cells; host or cells: BAEC", "T7 sequence (P09038 134-288)": "as above", "assay": "Binding of Eu-FGF2 to endothelial cells (BAEC), high affinity receptors", "format": "cell-based, bovine", "details": "Eu-FGF2 10 ng/ml, after 2 M NaCl wash", "experimental": "as §1, §2, §3"}, "FGF2": {"target": "T8, FGF2 (Homo sapiens, UniProt P09038, A136E/C211S/C229S/S138E)", "T8 construct": "purchased ASLA (Riga, Latvia)", "T8 sequence (P09038 134-288 A136E/S138E/C211S/C229S)": "as the sequence (P09038 134-288) above, with A3E, S5E, C78S, C96S counted along it", "assay": "NMR 15N-1H HSQC titration of sm27 into FGF2", "format": "binding", "details": "0:1 to 4:1 sm27:FGF2, pH 5.5, 298 K", "description": "All NMR data were collected on a Bruker DMX 500 MHz spectrometer at 298 K.\nNMR samples contained 0.57 mM ^15N-labeled FGF2, dissolved in a buffer containing 50 mM potassium phosphate, 2 mM NaN3, and 10 mM deuterated DTT in 90% H2O/10% D2O, pH 5.5. […] At molar ratios higher than 1:1, partial sample precipitation was observed, till full sample precipitation at nominal 4:1 ratio. […] Due to the precipitation it was not possible to reach the plateau of the titration and to estimate the real stoichiometric ratio at each step."}, "[6]": {"test_system": "chicken chorioallantoic membrane", "design": "method as in PMID 20056600", "details": "chicken chorioallantoic membrane assay; cited from earlier work"}}}
{"molecule": "O=C(Nc1ccc2cc(S(=O)(=O)O)cc(O)c2c1)Nc1ccc2cc(S(=O)(=O)O)cc(O)c2c1", "note": "[sm27, 4-hydroxy-6-((((8-hydroxy-6-sulfo-2-naphthyl)amino)carbonyl)amino)-2-naphthalenesulfonic acid]", "values": [{"measurement": "IC50", "setting": "FGF2/heparin interaction", "value": 3.5, "unit": "µM"}, {"measurement": "Effect on FGF2 binding to HSPGs low affinity receptors", "setting": "[1]", "value": "inhibited"}, {"measurement": "Effect on binding of FGF2 to endothelial cells", "setting": "endothelial cells [2]", "value": "prevented"}, {"measurement": "Effect on FGF2-induced endothelial cell proliferation", "setting": "endothelial cells [3]", "value": "inhibited"}, {"measurement": "IC50", "setting": "FGF2/FGFR1/HSPGs complex", "value": 1, "unit": "µM"}, {"measurement": "Effect on Eu-FGF2 binding to FGFR1", "setting": "[4]; A745 CHO flg-1A cells, Eu-FGF2 10 ng/ml", "value": "inhibited"}, {"measurement": "IC50", "setting": "FGF2/FGFR1 interaction", "value": 4, "unit": "µM"}, {"measurement": "Effect on Eu-FGF2 binding to HSPGs", "setting": "HSPGs on CHO-K1 cells; Eu-FGF2 10 ng/ml", "value": "inhibited"}, {"measurement": "Effect on FGF2 binding to high affinity FGFR1", "setting": "[5]", "value": "inhibited"}, {"measurement": "Binding to FGF2 judged from the NMR titration (exchange regime)", "setting": "FGF2", "value": "weak binding"}, {"measurement": "Effect on FGF2-induced angiogenesis", "setting": "[6]", "value": "inhibited"}]}
{"molecule": "heparin [reference compound]", "values": [{"measurement": "Effect of reference competitor on Eu-FGF2 binding to HSPGs", "setting": "HSPGs on CHO-K1 cells; heparin 0.1 µg/ml", "value": "inhibitory activity"}]}
{"molecule": "unlabelled FGF2: Human recombinant FGF2, unlabeled, reference competitor of FGFR1 binding [reference compound]", "values": [{"measurement": "Effect of reference competitor on Eu-FGF2 binding to FGFR1", "setting": "[4]; FGFR1-CHO cells, unlabeled FGF2 1.5 µg/ml", "value": "inhibitory activity"}]}
